Data on 17 compounds can be found in patent US9346852B2, “Substituted adipic acid amides and uses thereof” (Bristol-Myers Scuibb Company, priority 2011, dated 2016).

For this assay, the target named is T1, human Y4 stable CHO clonal cells (Homo sapiens, UniProt P50391).
T1 construct: expressed in transfected cells
Nature of the assay: NPY4 cAMP HTRF Agonist Assay. The following applies: inhibitory cAMP assay, Gi activation by Y4 agonism, forskolin and IBMX, 30 minutes at room temperature. In kind it is cell-based. The procedure:
NPY4 cAMP HTRF Agonist Assay
The functionality of the compound at Y4 receptor was analyzed using an inhibitory cAMP assay (CISBIO, HTRF cAMP kit #62AM4PEC) to measure the Gi activation by Y4 agonism.
The human Y4 stable CHO clonal cells were maintained in culture medium (F-12 containing 10% Fetal Bovine Serum, […] GENETICIN®, […] Zeocin). Before the experiment, 5 μL of 1 uM Forskolin (Sigma, # F6886) and 100 uM IBMX (Sigma, # I5879) in PBS buffer were added into 384-well plates (PE, Proxi-plate) that were pre-dotted with […] compounds. The cells were removed from the flasks by Cellstripper, counted and adjusted to […] in PBS buffer, and added 5 μL/well (5000 cells/well) into the above 384-well plates. The cells were then covered and incubated for 30 minutes at room temperature. After incubation, 5 μL/well of D2-conjugate in HTRF lysis buffer was first added, followed by adding 5 μL/well of anti-cAMP Cryptate in HTRF lysis buffer. The plates were incubated for another 1 hour at room temperature and read on the EnVision Multilabel Plate Reader.
Compounds described herein were tested in the above assay.
A general note: In TR-FRET formats the signal depends on donor and acceptor labels being close together.

SMILES strings stand for the structures. pEC50: −log10 of the molar value.

T1 sequence (P50391 whole entry): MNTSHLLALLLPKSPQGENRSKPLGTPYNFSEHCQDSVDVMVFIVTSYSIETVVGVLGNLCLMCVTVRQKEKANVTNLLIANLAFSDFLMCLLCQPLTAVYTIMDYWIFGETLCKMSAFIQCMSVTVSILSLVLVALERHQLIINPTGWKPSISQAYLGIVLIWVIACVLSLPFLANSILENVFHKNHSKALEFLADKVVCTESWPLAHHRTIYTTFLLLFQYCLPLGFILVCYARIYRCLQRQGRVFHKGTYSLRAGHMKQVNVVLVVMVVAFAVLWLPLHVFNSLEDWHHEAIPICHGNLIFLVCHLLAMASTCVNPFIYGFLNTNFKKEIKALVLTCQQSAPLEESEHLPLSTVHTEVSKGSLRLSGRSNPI

One may read the pEC50 as the EC50 on a negative log10 scale, so that one unit is a factor of ten. Low readings indicate a large EC50, high ones a small EC50. In turn, `COC(=O)[C@@H]1CCC[C@@H]2SCC[C@H](NC(=O)[C@H](CC[C@H](Cc3ccc(O)cc3)C(=O)N[C@H]3CCS[C@H]4CCC[C@@H](C(=O)OC)N4C3=O)Cc3ccccc3)C(=O)N21` [Example 38, Dimethyl (4S,7S,10aS,4′S,7′S,10a′S)-4,4′-(((2R,5R)-2-benzyl-5-(4-hydroxybenzyl)-1,6-dioxo-1,6-hexanediyl)diimino)bis(5-oxooctahydro-7H-pyrido[2,1-b][1,3]thiazepine-7-carboxylate)] had a pEC50 of 8.30. The result for `COc1ccccc1N1CCCC[C@H](NC(=O)[C@H](CC[C@H](Cc2ccccc2)C(=O)N[C@H]2CCS[C@H]3CCC[C@@H](C#N)N3C2=O)Cc2ccccc2)C1=O` [Example 96, (2R,5R)-2,5-Dibenzyl-N1-((4S,7S,10aS)-7-cyano-5-oxooctahydro-2H-pyrido[2,1-b][1,3]thiazepin-4-yl)-N6-((S)-1-(2-methoxyphenyl)-2-oxoazepan-3-yl)hexanediamide] reads 8.15. The result for `O=C(N[C@H]1CCCCN(c2ccccc2)C1=O)[C@H](CC[C@H](Cc1ccccc1)C(=O)N[C@H]1CCS[C@H]2CCCCN2C1=O)Cc1ccccc1` [Example 59, (2R,5R)-2,5-Dibenzyl-N1-((S)-2-oxo-1-phenylazepan-3-yl)-N6-((4S,10aS)-5-oxooctahydro-2H-pyrido[2,1-b][1,3]thiazepin-4-yl)hexanediamide] reads 6.57; that for `COC(=O)[C@@H]1CCC[C@@H]2SCC[C@H](NC(=O)[C@H](CC[C@H](CC(C)C)C(=O)N[C@H]3CCS[C@H]4CCC[C@@H](C(=O)OC)N4C3=O)Cc3ccccc3)C(=O)N21` [Example 4], 6.89. With `N#C[C@@H]1CCC[C@@H]2SCC[C@H](NC(=O)[C@H](CC[C@H](Cc3ccccc3)C(=O)N[C@H]3CCCCN(c4ccccc4)C3=O)Cc3ccccc3)C(=O)N12` [Example 72, (2R,5R)-2,5-Dibenzyl-N1-((4S,7S,10aS)-7-cyano-5-oxooctahydro-2H-pyrido[2,1-b][1,3]thiazepin-4-yl)-N6-((S)-2-oxo-1-phenylazepan-3-yl)hexanediamide], the pEC50 was 7.26. The compound `COC(=O)[C@@H]1CCC[C@@H]2SCC[C@H](NC(=O)[C@H](CC[C@H](Cc3ccc(O)cc3)C(=O)N[C@H]3CCS[C@H]4CCC[C@@H](C(=O)OC)N4C3=O)Cc3ccc(O)cc3)C(=O)N21` [Example 9, Dimethyl (4S,7S,10aS,4′S,7′S,10a′S)-4,4′-(((2R,5R)-2,5-bis(4-hydroxybenzyl)-1,6-dioxo-1,6-hexanediyl)diimino)bis(5-oxooctahydro-7H-pyrido[2,1-b][1,3]thiazepine-7-carboxylate)] had a pEC50 of 7.85. The result for `COC(=O)[C@@H]1CCC[C@@H]2SCC[C@H](NC(=O)[C@H](CC[C@H](CC#N)C(=O)N[C@H]3CCS[C@H]4CCC[C@@H](C(=O)OC)N4C3=O)Cc3ccccc3)C(=O)N21` [Example 32, Dimethyl (4S,7S,10aS,4′S,7′S,10a′S)-4,4′-(((2R,5R)-2-benzyl-5-(cyanomethyl)-1,6-dioxo-1,6-hexanediyl)diimino)bis(5-oxooctahydro-7H-pyrido[2,1-b][1,3]thiazepine-7-carboxylate)] reads 7.62; that for `COC(=O)[C@@H]1CCC[C@@H]2SCC[C@H](NC(=O)[C@H](CC[C@H](Cc3ccccc3)C(=O)N[C@@H]3C(=O)N4CCC[C@@H]4SC3(C)C)Cc3ccccc3)C(=O)N21` [Example 12, (4S,7S,10aS)-Methyl 4-((2R,5R)-2,5-dibenzyl-6-((3R,8aS)-2,2-dimethyl-4-oxohexahydro-2H-pyrrolo[2,1-b][1,3]thiazin-3-ylamino)-6-oxohexanamido)-5-oxooctahydro-2H-pyrido[2,1-b][1,3]thiazepine-7-carboxylate], 7.22.

Compound `COC[C@@H]1CCC[C@@H]2SCC[C@H](NC(=O)[C@H](CC[C@H](Cc3ccccc3)C(=O)N[C@H]3CCCCN(c4ccccc4)C3=O)Cc3ccccc3)C(=O)N12` [Example 74, (2R,5R)-2,5-Dibenzyl-N1-((4S,7S,10aS)-7-(methoxymethyl)-5-oxooctahydro-2H-pyrido[2,1-b][1,3]thiazepin-4-yl)-N6-((S)-2-oxo-1-phenylazepan-3-yl)hexanediamide] had a pEC50 of 6.33.

As for `COC(=O)[C@@H]1CCC[C@@H]2SCC[C@H](NC(=O)[C@H](CC[C@H](Cc3ccccc3)C(=O)N[C@H]3CCS[C@H]4CCCCN4C3=O)Cc3ccccc3)C(=O)N21` [Example 30, (4S,7S,10aS)-Methyl 4-((2R,5R)-2,5-dibenzyl-6-oxo-6-((4S,10aS)-5-oxooctahydro-2H-pyrido[2,1-b][1,3]thiazepin-4-ylamino)hexanamido)-5-oxooctahydro-2H-pyrido[2,1-b][1,3]thiazepine-7-carboxylate], the pEC50 is 6.64. Under `COC(=O)[C@@H]1CCC[C@@H]2SCC[C@H](NC(=O)[C@H](CC[C@H](Cc3ccccc3)C(=O)N[C@H]3CCS[C@H]4CCC[C@@H](C(=O)OC)N4C3=O)Cc3ccccc3)C(=O)N21` [Example 1, Dimethyl (4S,7S,10aS,4′S,7′S,10a′S)-4,4′-(((2R,5R)-2,5-dibenzyl-1,6-dioxo-1,6-hexanediyl)diimino)bis(5-oxooctahydro-7H-pyrido[2,1-b][1,3]thiazepine-7-carboxylate)] stands 7.77; under `COC(=O)[C@@H]1CCC[C@@H]2SCC[C@H](NC(=O)[C@H](CC[C@H](CC3CCCCC3)C(=O)N[C@H]3CCS[C@H]4CCC[C@@H](C(=O)OC)N4C3=O)Cc3cccc(Cl)c3)C(=O)N21` [Example 43, Dimethyl (4S,7S,10aS,4′S,7′S,10a′S)-4,4′-(((2R,5R)-2-(3-chlorobenzyl)-5-(cyclohexylmethyl)-1,6-dioxo-1,6-hexanediyl)diimino)bis(5-oxooctahydro-7H-pyrido[2,1-b][1,3]thiazepine-7-carboxylate)], 6.08; under `COc1ccccc1N1CCCC[C@H](NC(=O)[C@H](CC[C@H](Cc2ccccc2)C(=O)N[C@H]2CCS[C@H]3CCC[C@@H](C(F)(F)F)N3C2=O)Cc2ccccc2)C1=O` [Example 79, (2R,5R)-2,5-Dibenzyl-N1-((S)-1-(2-methoxyphenyl)-2-oxoazepan-3-yl)-N6-((4S,7S,10aS)-5-oxo-7-(trifluoromethyl)octahydro-2H-pyrido[2,1-b][1,3]thiazepin-4-yl)hexanediamide], 7.74. The result for `Cc1ccccc1N1CCCC[C@H](NC(=O)[C@H](CC[C@H](Cc2ccccc2)C(=O)N[C@H]2CCS[C@H]3CC[C@@H](C(F)(F)F)CN3C2=O)Cc2ccccc2)C1=O` [Example 90, (2R,5R)-2,5-Dibenzyl-N1-((S)-2-oxo-1-o-tolylazepan-3-yl)-N6-((4S,8R,10aS)-5-oxo-8-(trifluoromethyl)octahydro-2H-pyrido[2,1-b][1,3]thiazepin-4-yl)hexanediamide] reads 6.57; that for `CCC[C@@H](CC[C@H](Cc1cccc(F)c1)C(=O)N[C@H]1CCS[C@H]2CCC[C@@H](C(=O)OC)N2C1=O)C(=O)N[C@H]1CCS[C@H]2CCC[C@@H](C(=O)OC)N2C1=O` [Example 100], 6.68; that for `COC(=O)[C@@H]1CCC[C@@H]2CCC[C@H](NC(=O)[C@H](CC[C@H](Cc3ccccc3)C(=O)N[C@H]3CCC[C@H]4CCC[C@@H](C(=O)OC)N4C3=O)Cc3ccccc3)C(=O)N21` [Example 5, Dimethyl (4S,7S,10aS,4′S,7′S,10a′S)-7,7′-(((2R,5R)-2,5-dibenzyl-1,6-dioxo-1,6-hexanediyl)diimino)bis(6-oxodecahydropyrido[1,2-a]azepine-4-carboxylate)], 6.70. The result for `COC(=O)[C@@H]1CCCN2CCC[C@H](NC(=O)[C@H](CC[C@H](Cc3ccccc3)C(=O)N[C@H]3CCCN4CCC[C@@H](C(=O)OC)N4C3=O)Cc3ccccc3)C(=O)N12` [Example 18, Dimethyl (1S,9S,1′S,9′S)-9,9′-(((2R,5R)-2,5-dibenzyl-1,6-dioxo-1,6-hexanediyl)diimino)bis(10-oxooctahydro-6H-pyridazino[1,2-a][1,2]diazepine-1-carboxylate)] reads 6.81.
